Results as given in ChEMBL document CHEMBL5154842, “Unique Carbazole-Oxadiazole Derivatives as New Potential Antibiotics for Combating Gram-Positive and -Negative Bacteria” (J Med Chem, 2022).
Converted amounts (≈) assume the structure as drawn. The source made the active and inactive calls. No cut-off for these calls is given here.

Columns and labels:
[1] = tested on: Staphylococcus aureus; assay: Antibacterial activity against Staphylococcus aureus 29213 assessed as inhibition of bacterial growth incubated for 24 hrs by CLSI protocol based two fold serial dilution method; assay type: functional
[2] = tested on: Escherichia coli; assay: Antibacterial activity against Escherichia coli assessed as inhibition of bacterial growth incubated for 24 hrs by CLSI protocol based two fold serial dilution method; assay type: functional
[3] = tested on: Escherichia coli; assay: Antibacterial activity against Escherichia coli 25922 assessed as inhibition of bacterial growth incubated for 24 hrs by CLSI protocol based two fold serial dilution method; assay type: functional
[4] = tested on: Acinetobacter baumannii; assay: Antibacterial activity against Acinetobacter baumannii assessed as inhibition of bacterial growth incubated for 24 hrs by CLSI protocol based two fold serial dilution method; assay type: functional
[5] = tested on: Klebsiella pneumoniae; assay: Antibacterial activity against Klebsiella pneumonia assessed as inhibition of bacterial growth incubated for 24 hrs by CLSI protocol based two fold serial dilution method; assay type: functional
[6] = tested on: Pseudomonas aeruginosa; assay: Antibacterial activity against Pseudomonas aeruginosa ATCC 27853 assessed as inhibition of bacterial growth incubated for 24 hrs by CLSI protocol based two fold serial dilution method; assay type: functional
[7] = tested on: Staphylococcus aureus; assay: Antibacterial activity against Staphylococcus aureus assessed as inhibition of bacterial growth incubated for 24 hrs by CLSI protocol based two fold serial dilution method; assay type: functional
[8] = tested on: Staphylococcus aureus; assay: Antibacterial activity against Staphylococcus aureus 25923 assessed as inhibition of bacterial growth incubated for 24 hrs by CLSI protocol based two fold serial dilution method; assay type: functional
[9] = tested on: Pseudomonas aeruginosa; assay: Antibacterial activity against Pseudomonas aeruginosa assessed as inhibition of bacterial growth incubated for 24 hrs by CLSI protocol based two fold serial dilution method; assay type: functional
[10] = tested on: Enterococcus faecalis; assay: Antibacterial activity against Enterococcus faecalis assessed as inhibition of bacterial growth incubated for 24 hrs by CLSI protocol based two fold serial dilution method; assay type: functional
[11] = tested on: Staphylococcus aureus; assay: Antibacterial activity against methicillin-resistant Staphylococcus aureus N315 assessed as inhibition of bacterial growth incubated for 24 hrs by CLSI protocol based two fold serial dilution method; assay type: functional
[12] = Hemolytic activity in human RBC assessed as hemolysis at 1 to 32 ug/ml measured after 60 mins by microplate reader assay relative to control; assay type: toxicity, cell-based, Erythrocyte; conditions: red blood cells (erythrocytes), at 1 to 32 µg/mL, dose 1-32 µg/ml, read-out: Activity
[13] = tested on: Staphylococcus aureus; assay: Antibacterial activity against methicillin-resistant Staphylococcus aureus N315 assessed as inhibition of bacterial growth at 0.25 to 64 ug/ml incubated for 24 hrs by Alamar blue assay; assay type: functional, organism-based; conditions: dose 0.25-64 µg/ml
[14] = tested on: Staphylococcus aureus; assay: Antibacterial activity against methicillin-resistant Staphylococcus aureus N315 assessed as change in susceptibility at sub-MIC treated over 9 serial passages measured after 9 days by resistance development assay; assay type: functional, organism-based; conditions: time 9.0 day
[15] = tested on: Staphylococcus aureus; assay: Antibacterial activity against methicillin-resistant Staphylococcus aureus N315 assessed as inhibition of bacterial growth at 0.5 to 16 ug/ml measured after 24 hrs by microplate reader assay; assay type: functional, organism-based; conditions: dose 0.5-16 µg/ml

With `Sc1nnc(COc2cccc3c2c2ccccc2n3Cc2nnc(S)o2)o1` the MIC [1] was 64 µg/mL (≈ 156 µM), the MIC [2] was 32 µg/mL (≈ 77.8 µM) and the MIC [3] was 32 µg/mL (≈ 77.8 µM). It also gave an MIC [4] of 128 µg/mL (≈ 311 µM), an MIC [5] of 64 µg/mL (≈ 156 µM) and an MIC [6] of 128 µg/mL (≈ 311 µM). It also gave an MIC [7] of 32 µg/mL (≈ 77.8 µM), an MIC [8] of 64 µg/mL (≈ 156 µM) and an MIC [9] of 128 µg/mL (≈ 311 µM). For the same compound, the MIC [10] was 32 µg/mL (≈ 77.8 µM) and the MIC [11] was 32 µg/mL (≈ 77.8 µM).

In the case of `Clc1cnc(COc2cccc3[nH]c4ccccc4c23)s1`, the MIC [1] is reported as 256 µg/mL (≈ 813 µM), the MIC [2] is reported as 256 µg/mL (≈ 813 µM) and the MIC [3] is reported as 256 µg/mL (≈ 813 µM). The MIC [4] was 256 µg/mL (≈ 813 µM), the MIC [5] was 256 µg/mL (≈ 813 µM) and the MIC [6] was 256 µg/mL (≈ 813 µM). For the same compound, the MIC [7] was 256 µg/mL (≈ 813 µM), the MIC [8] was 256 µg/mL (≈ 813 µM) and the MIC [9] was 256 µg/mL (≈ 813 µM). For the same compound, the MIC [10] was 256 µg/mL (≈ 813 µM) and the MIC [11] was 256 µg/mL (≈ 813 µM).

`CCCOc1cccc2c1c1ccccc1n2Cc1nnc(S)o1` showed an MIC [1] of 4 µg/mL (≈ 11.8 µM), an MIC [2] of 4 µg/mL (≈ 11.8 µM) and an MIC [3] of 1 µg/mL (≈ 2.95 µM). For the same compound, the MIC [4] was 0.25 µg/mL (≈ 0.737 µM), the MIC [5] was 4 µg/mL (≈ 11.8 µM) and the MIC [6] was 4 µg/mL (≈ 11.8 µM). It also gave an MIC [7] of 128 µg/mL (≈ 377 µM), an MIC [8] of 2 µg/mL (≈ 5.89 µM) and an MIC [9] of 256 µg/mL (≈ 754 µM). The MIC [10] was 2 µg/mL (≈ 5.89 µM) and the MIC [11] was 2 µg/mL (≈ 5.89 µM).

Compound `Fc1ccc(COc2cccc3c2c2ccccc2n3Cc2nnc(S)o2)cc1` has an MIC [1] of 8 µg/mL (≈ 19.7 µM), an MIC [2] of 0.25 µg/mL (≈ 0.617 µM) and an MIC [3] of 2 µg/mL (≈ 4.93 µM). The MIC [4] was 4 µg/mL (≈ 9.87 µM), the MIC [5] was 4 µg/mL (≈ 9.87 µM) and the MIC [6] was 8 µg/mL (≈ 19.7 µM). For the same compound, the MIC [7] was 256 µg/mL (≈ 631 µM), the MIC [8] was 2 µg/mL (≈ 4.93 µM) and the MIC [9] was 256 µg/mL (≈ 631 µM). For the same compound, the MIC [10] was 2 µg/mL (≈ 4.93 µM) and the MIC [11] was 1 µg/mL (≈ 2.47 µM).

`CCN(CC)CCOc1cccc2c1c1ccccc1n2Cc1nnc(S)o1` gave an MIC [1] of 256 µg/mL (≈ 646 µM), an MIC [2] of 256 µg/mL (≈ 646 µM) and an MIC [3] of 256 µg/mL (≈ 646 µM). For the same compound, the MIC [4] was 256 µg/mL (≈ 646 µM), the MIC [5] was 256 µg/mL (≈ 646 µM) and the MIC [6] was 2 µg/mL (≈ 5.04 µM). For the same compound, the MIC [7] was 256 µg/mL (≈ 646 µM), the MIC [8] was 256 µg/mL (≈ 646 µM) and the MIC [9] was 256 µg/mL (≈ 646 µM). For the same compound, the MIC [10] was 4 µg/mL (≈ 10.1 µM) and the MIC [11] was 128 µg/mL (≈ 323 µM).

With `CCn1cc(C(=O)O)c(=O)c2cc(F)c(N3CCNCC3)cc21` [NORFLOXACIN] the MIC [1] was 4 µg/mL (≈ 12.5 µM), the MIC [2] was 0.25 µg/mL (≈ 0.783 µM) and the MIC [3] was 2 µg/mL (≈ 6.26 µM). For the same compound, the MIC [4] was 128 µg/mL (≈ 401 µM), the MIC [5] was 4 µg/mL (≈ 12.5 µM) and the MIC [6] was 128 µg/mL (≈ 401 µM). The MIC [7] was 2 µg/mL (≈ 6.26 µM), the MIC [8] was 1 µg/mL (≈ 3.13 µM) and the MIC [9] was 8 µg/mL (≈ 25.1 µM). For the same compound, the MIC [10] was 2 µg/mL (≈ 6.26 µM) and the MIC [11] was 0.5 µg/mL (≈ 1.57 µM).

Work on `C=CCSc1nnc2c3ccccc3n(Cc3nnc(S)o3)c2n1` yielded an MIC [1] of 256 µg/mL (≈ 718 µM), an MIC [2] of 256 µg/mL (≈ 718 µM) and an MIC [3] of 256 µg/mL (≈ 718 µM). The MIC [4] was 256 µg/mL (≈ 718 µM), the MIC [5] was 256 µg/mL (≈ 718 µM) and the MIC [6] was 256 µg/mL (≈ 718 µM). The MIC [7] was 256 µg/mL (≈ 718 µM), the MIC [8] was 256 µg/mL (≈ 718 µM) and the MIC [9] was 256 µg/mL (≈ 718 µM). The MIC [10] was 256 µg/mL (≈ 718 µM) and the MIC [11] was 256 µg/mL (≈ 718 µM).

For `CC(C)=CCOc1cccc2c1c1ccccc1n2Cc1nnc(S)o1`, the MIC [1] was 4 µg/mL (≈ 10.9 µM), the MIC [2] was 8 µg/mL (≈ 21.9 µM) and the MIC [3] was 4 µg/mL (≈ 10.9 µM). It also gave an MIC [4] of 8 µg/mL (≈ 21.9 µM), an MIC [5] of 4 µg/mL (≈ 10.9 µM) and an MIC [6] of 2 µg/mL (≈ 5.47 µM). It also gave an MIC [7] of 256 µg/mL (≈ 700 µM), an MIC [8] of 4 µg/mL (≈ 10.9 µM) and an MIC [9] of 256 µg/mL (≈ 700 µM). For the same compound, the MIC [10] was 4 µg/mL (≈ 10.9 µM) and the MIC [11] was 1 µg/mL (≈ 2.74 µM).

Work on `c1ccc2c(c1)[nH]c1cccc(OCc3nnn[nH]3)c12` yielded an MIC [1] of 128 µg/mL (≈ 483 µM), an MIC [2] of 128 µg/mL (≈ 483 µM) and an MIC [3] of 128 µg/mL (≈ 483 µM). It also gave an MIC [4] of 128 µg/mL (≈ 483 µM), an MIC [5] of 64 µg/mL (≈ 241 µM) and an MIC [6] of 0.5 µg/mL (≈ 1.88 µM). For the same compound, the MIC [7] was 128 µg/mL (≈ 483 µM), the MIC [8] was 128 µg/mL (≈ 483 µM) and the MIC [9] was 128 µg/mL (≈ 483 µM). It also gave an MIC [10] of 64 µg/mL (≈ 241 µM) and an MIC [11] of 0.5 µg/mL (≈ 1.88 µM).

`CCCCCOc1cccc2c1c1ccccc1n2Cc1nnc(S)o1` gave an MIC [1] of 256 µg/mL (≈ 697 µM), an MIC [2] of 256 µg/mL (≈ 697 µM) and an MIC [3] of 256 µg/mL (≈ 697 µM). The MIC [4] was 128 µg/mL (≈ 348 µM), the MIC [5] was 256 µg/mL (≈ 697 µM) and the MIC [6] was 256 µg/mL (≈ 697 µM). It also gave an MIC [7] of 256 µg/mL (≈ 697 µM), an MIC [8] of 256 µg/mL (≈ 697 µM) and an MIC [9] of 256 µg/mL (≈ 697 µM). It also gave an MIC [10] of 256 µg/mL (≈ 697 µM) and an MIC [11] of 256 µg/mL (≈ 697 µM).

With `Sc1nnc(Cn2c3ccccc3c3c(OCC4CCCC4)cccc32)o1` the hemolysis at 1 h [12] was under 3%, the MIC [1] was 0.25 µg/mL (≈ 0.659 µM) and the MIC [2] was 4 µg/mL (≈ 10.5 µM). The MIC [3] was 1 µg/mL (≈ 2.64 µM), the MIC [4] was 2 µg/mL (≈ 5.27 µM) and the Activity [13] was “Active”. It also gave an MIC [5] of 4 µg/mL (≈ 10.5 µM), an MIC [6] of 4 µg/mL (≈ 10.5 µM) and an MIC [7] of 256 µg/mL (≈ 675 µM). For the same compound, the MIC [8] was 4 µg/mL (≈ 10.5 µM), the MIC [9] was 256 µg/mL (≈ 675 µM) and the Activity [14] was “Active”. For the same compound, the Activity [15] was “Active”, the MIC [10] was 1 µg/mL (≈ 2.64 µM) and the MIC [11] was 2 µg/mL (≈ 5.27 µM).

`CN[C@H](CC(C)C)C(=O)N[C@H]1C(=O)N[C@@H](CC(N)=O)C(=O)N[C@H]2C(=O)N[C@H]3C(=O)N[C@H](C(=O)N[C@H](C(=O)O)c4cc(O)cc(O)c4-c4cc3ccc4O)[C@H](O)c3ccc(c(Cl)c3)Oc3cc2cc(c3O[C@@H]2O[C@H](CO)[C@@H](O)[C@H](O)[C@H]2O[C@H]2C[C@](C)(N)[C@H](O)[C@H](C)O2)Oc2ccc(cc2Cl)[C@H]1O` [VANCOMYCIN] showed an MIC [10] of 2 µg/mL (≈ 1.38 µM).
